According to PubChem BioAssay (NCI):
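Tested at 5 concentrations; 48 h exposure; 96-well plates; endpoints linearly interpolated, else capped at highest concentration. GI50 = concentration required for 50% inhibition of growth. Definition used: TGI = concentration required for complete inhibition of growth.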

How the values were obtained:
Experiment in all cases: NCI anticancer screen, dose series, 48 h
[1] = tested on: RXF 393 renal
[2] = tested on: M14 melanoma
[3] = tested on: MDA-MB-231 breast
[4] = tested on: T-47D breast
[5] = tested on: A549 NSCLC
[6] = tested on: SK-MEL-2 melanoma
[7] = tested on: SN12C renal
[8] = tested on: A498 renal
[9] = tested on: HCC-2998 colon
[10] = tested on: HL-60(TB) leukemia
[11] = tested on: U251 CNS
[12] = tested on: IGROV1 ovarian
[13] = tested on: MALME-3M melanoma
[14] = tested on: SNB-75 CNS
[15] = tested on: MDA-MB-435
[16] = tested on: NCI-H460 lung
[17] = tested on: NCI-H522 lung
[18] = tested on: MCF7 breast
[19] = tested on: ACHN renal
[20] = tested on: SF-268 CNS
[21] = tested on: HT29 colon
[22] = tested on: SW-620 colon
[23] = tested on: K-562 leukemia
[24] = tested on: BT-549 breast
[25] = tested on: CCRF-CEM leukemia
[26] = tested on: SNB-19 CNS
[27] = tested on: UACC-257 melanoma
[28] = tested on: OVCAR-4 ovarian
[29] = tested on: RPMI-8226 leukemia
[30] = tested on: NCI/ADR-RES ovarian
[31] = tested on: NCI-H226 lung
[32] = tested on: TK-10 renal
[33] = tested on: LOX IMVI melanoma
[34] = tested on: COLO 205 colon
[35] = tested on: DU-145 prostate
[36] = tested on: CAKI-1 renal
[37] = tested on: HOP-62 NSCLC
[38] = tested on: SF-539 CNS
[39] = tested on: KM12 colon
[40] = tested on: HCT-116 colon
[41] = tested on: UO-31 renal
[42] = tested on: SK-OV-3 ovarian
[43] = tested on: OVCAR-3 ovarian
[44] = tested on: SK-MEL-28 melanoma
[45] = tested on: UACC-62 melanoma
[46] = tested on: OVCAR-8 ovarian
[47] = tested on: MOLT-4 leukemia
[48] = tested on: PC-3 prostate
[49] = tested on: 786-0 renal
[50] = tested on: SF-295 CNS
[51] = tested on: OVCAR-5 ovarian
[52] = tested on: EKVX NSCLC
[53] = tested on: SK-MEL-5 melanoma
[54] = tested on: HCT-15 colon
[55] = tested on: HOP-92 NSCLC
[56] = tested on: NCI-H23 lung
[57] = tested on: HS 578T breast
[58] = tested on: SR leukemia

With `Cc1c(C(N)=O)sc2c1c(=O)n(Cc1ccccc1)c1nnc(S(=O)(=O)CC(=O)Nc3ccc(Cl)cc3)n21` as the compound, how does the GI50 [1] read?
Its GI50 is 2.41 µM.

And the TGI [1]?
The TGI was 7.13 µM.

And the GI50 [2]?
Its GI50 is 5.3 µM.

And the TGI [2]?
The TGI was 21.2 µM.

And the GI50 [3]?
Its GI50 is 4.24 µM.

And the TGI [3]?
Its TGI is 18.5 µM.

And the GI50 [4]?
Its GI50 is 3.89 µM.

What about the TGI [4] of the same compound?
Its TGI is 14.3 µM.

What about the GI50 [5] of the same compound?
Its GI50 is 2.3 µM.

What about the TGI [5] of the same compound?
Its TGI is 6.04 µM.

What about the GI50 [6] of the same compound?
The GI50 was 2.83 µM.

And the TGI [6]?
Its TGI is 7.18 µM.

And the GI50 [7]?
The GI50 was 4.67 µM.

What about the TGI [7] of the same compound?
The TGI was 28.2 µM.

What about the GI50 [8] of the same compound?
The GI50 was 1.26 µM.

What about the TGI [8] of the same compound?
The TGI was 4.21 µM.

And the GI50 [9]?
The GI50 was 18.7 µM.

What about the TGI [9] of the same compound?
Its TGI is greater than 100 µM.

And the GI50 [10]?
The GI50 was 40.7 µM.

And the TGI [10]?
Its TGI is greater than 100 µM.

What about the GI50 [11] of the same compound?
Its GI50 is 1.99 µM.

What about the TGI [11] of the same compound?
The TGI was 4.25 µM.

And the GI50 [12]?
The GI50 was 8.57 µM.

What about the TGI [12] of the same compound?
The TGI was 24.3 µM.

What about the GI50 [13] of the same compound?
The GI50 was 3.96 µM.

What about the TGI [13] of the same compound?
Its TGI is 17.5 µM.

What about the GI50 [14] of the same compound?
The GI50 was 2.15 µM.

And the TGI [14]?
Its TGI is 5.48 µM.

And the GI50 [15]?
Its GI50 is 3.61 µM.

What about the TGI [15] of the same compound?
The TGI was 17 µM.

What about the GI50 [16] of the same compound?
The GI50 was 2.87 µM.

What about the TGI [16] of the same compound?
The TGI was 7.64 µM.

And the GI50 [17]?
Its GI50 is 2.53 µM.

What about the TGI [17] of the same compound?
The TGI was 6.73 µM.

What about the GI50 [18] of the same compound?
Its GI50 is 4.76 µM.

And the TGI [18]?
The TGI was 70.2 µM.

What about the GI50 [19] of the same compound?
The GI50 was 4.63 µM.

What about the TGI [19] of the same compound?
Its TGI is 20.6 µM.

What about the GI50 [20] of the same compound?
Its GI50 is 6.8 µM.

And the TGI [20]?
The TGI was 27.4 µM.

And the GI50 [21]?
The GI50 was 6.82 µM.

What about the TGI [21] of the same compound?
The TGI was 26 µM.

And the GI50 [22]?
The GI50 was 4.87 µM.

And the TGI [22]?
The TGI was 20.4 µM.

What about the GI50 [23] of the same compound?
Its GI50 is 15 µM.

And the TGI [23]?
The TGI was 55.2 µM.

And the GI50 [24]?
The GI50 was 2.92 µM.

What about the TGI [24] of the same compound?
Its TGI is 14.9 µM.

And the GI50 [25]?
Its GI50 is 10.9 µM.

And the TGI [25]?
Its TGI is 43.1 µM.

And the GI50 [26]?
The GI50 was 7.7 µM.

And the TGI [26]?
Its TGI is 23.3 µM.

And the GI50 [27]?
The GI50 was 2.68 µM.

What about the TGI [27] of the same compound?
The TGI was 7.88 µM.

And the GI50 [28]?
Its GI50 is 1.93 µM.

What about the TGI [28] of the same compound?
The TGI was 5.47 µM.

And the GI50 [29]?
The GI50 was 39.1 µM.

What about the TGI [29] of the same compound?
The TGI was greater than 100 µM.

And the GI50 [30]?
Its GI50 is 20.2 µM.

And the TGI [30]?
The TGI was 63.4 µM.

And the GI50 [31]?
Its GI50 is 4.83 µM.

And the TGI [31]?
Its TGI is 19.8 µM.

And the GI50 [32]?
Its GI50 is 4.38 µM.

What about the TGI [32] of the same compound?
Its TGI is 19.2 µM.

And the GI50 [33]?
Its GI50 is 6.15 µM.

And the TGI [33]?
The TGI was 20.6 µM.

And the GI50 [34]?
Its GI50 is 10.7 µM.

And the TGI [34]?
Its TGI is 27.5 µM.

What about the GI50 [35] of the same compound?
Its GI50 is 7.29 µM.

What about the TGI [35] of the same compound?
The TGI was 36.7 µM.

And the GI50 [36]?
Its GI50 is 2.94 µM.

And the TGI [36]?
Its TGI is 11.8 µM.

What about the GI50 [37] of the same compound?
Its GI50 is 2.51 µM.

And the TGI [37]?
Its TGI is 5.99 µM.

What about the GI50 [38] of the same compound?
The GI50 was 2.75 µM.

What about the TGI [38] of the same compound?
The TGI was 6.5 µM.

And the GI50 [39]?
The GI50 was 4.54 µM.

What about the TGI [39] of the same compound?
The TGI was 16.2 µM.

What about the GI50 [40] of the same compound?
Its GI50 is 2.1 µM.

What about the TGI [40] of the same compound?
Its TGI is 5.22 µM.

And the GI50 [41]?
The GI50 was 2.86 µM.

What about the TGI [41] of the same compound?
The TGI was 11.3 µM.

And the GI50 [42]?
Its GI50 is 3.24 µM.

And the TGI [42]?
The TGI was 7.81 µM.

What about the GI50 [43] of the same compound?
The GI50 was 5.27 µM.

And the TGI [43]?
The TGI was 18 µM.

What about the GI50 [44] of the same compound?
The GI50 was 2.98 µM.

And the TGI [44]?
Its TGI is 8.45 µM.

And the GI50 [45]?
The GI50 was 4.21 µM.

And the TGI [45]?
Its TGI is 18.7 µM.

And the GI50 [46]?
Its GI50 is 3.69 µM.

What about the TGI [46] of the same compound?
Its TGI is 15.6 µM.

And the GI50 [47]?
Its GI50 is 15.6 µM.

What about the TGI [47] of the same compound?
Its TGI is 46.8 µM.

And the GI50 [48]?
Its GI50 is 2.58 µM.

What about the TGI [48] of the same compound?
The TGI was 9.3 µM.

And the GI50 [49]?
The GI50 was 3.07 µM.

What about the TGI [49] of the same compound?
The TGI was 12.2 µM.

What about the GI50 [50] of the same compound?
Its GI50 is 3.28 µM.

What about the TGI [50] of the same compound?
Its TGI is 26.2 µM.

What about the GI50 [51] of the same compound?
The GI50 was 10.9 µM.

And the TGI [51]?
The TGI was 52.1 µM.

And the GI50 [52]?
Its GI50 is 5.89 µM.

What about the TGI [52] of the same compound?
The TGI was 27.4 µM.

What about the GI50 [53] of the same compound?
The GI50 was 6.02 µM.

And the TGI [53]?
Its TGI is 20.7 µM.

What about the GI50 [54] of the same compound?
Its GI50 is 38.6 µM.

And the TGI [54]?
Its TGI is greater than 100 µM.

And the GI50 [55]?
Its GI50 is 2.26 µM.

And the TGI [55]?
Its TGI is 6.63 µM.

And the GI50 [56]?
Its GI50 is 3.13 µM.

What about the TGI [56] of the same compound?
Its TGI is 9.71 µM.

And the GI50 [57]?
Its GI50 is 2.67 µM.

What about the TGI [57] of the same compound?
The TGI was greater than 100 µM.

What about the GI50 [58] of the same compound?
The GI50 was 6.71 µM.

What about the TGI [58] of the same compound?
The TGI was 30.3 µM.
